Where two headings read alike, the source gives them in different places. Values belong to the compound of their own block, whether it stands above or below them.
Target: T1, Rhesus PDE2A3 (Macaca mulatta, UniProt B3VTJ2)
T1 construct: made in house; host or cells: AD293 cells, transient transfection, pcDNA3.3-TOPO; lysate supernatant used as enzyme
T1 sequence (B3VTJ2 1-941): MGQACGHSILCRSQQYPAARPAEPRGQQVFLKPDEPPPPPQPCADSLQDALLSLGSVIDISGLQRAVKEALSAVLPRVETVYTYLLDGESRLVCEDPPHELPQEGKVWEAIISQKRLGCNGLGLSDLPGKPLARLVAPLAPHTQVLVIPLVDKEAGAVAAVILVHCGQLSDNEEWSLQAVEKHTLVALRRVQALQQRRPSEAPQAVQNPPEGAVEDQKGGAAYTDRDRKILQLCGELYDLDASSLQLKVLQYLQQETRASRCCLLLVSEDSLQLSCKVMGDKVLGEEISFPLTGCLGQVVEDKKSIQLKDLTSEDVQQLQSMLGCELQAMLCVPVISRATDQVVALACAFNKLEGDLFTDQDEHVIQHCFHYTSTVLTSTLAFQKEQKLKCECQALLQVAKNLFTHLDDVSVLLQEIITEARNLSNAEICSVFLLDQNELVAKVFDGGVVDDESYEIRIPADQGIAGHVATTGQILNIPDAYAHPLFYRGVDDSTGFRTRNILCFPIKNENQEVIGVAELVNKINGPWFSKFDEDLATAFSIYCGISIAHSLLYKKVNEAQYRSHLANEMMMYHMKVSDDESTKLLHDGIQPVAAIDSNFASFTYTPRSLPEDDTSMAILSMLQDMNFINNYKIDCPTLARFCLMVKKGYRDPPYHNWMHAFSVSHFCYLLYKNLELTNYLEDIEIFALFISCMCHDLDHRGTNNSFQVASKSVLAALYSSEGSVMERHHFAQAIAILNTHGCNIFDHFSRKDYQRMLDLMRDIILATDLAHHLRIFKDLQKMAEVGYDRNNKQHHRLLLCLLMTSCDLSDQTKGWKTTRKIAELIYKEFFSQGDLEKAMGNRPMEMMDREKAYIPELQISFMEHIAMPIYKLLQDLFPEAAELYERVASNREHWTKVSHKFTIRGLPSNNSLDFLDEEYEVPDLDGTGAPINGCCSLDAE
Assay: PDE2 fluorescence polarization (IMAP FP) inhibition assay, rhesus enzyme
Type: biochemical, rhesus macaque
In short: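 Lysate of AD293 cells transiently expressing rhesus PDE2A3, diluted for ~20% substrate conversion, with 50 nM FAM-cAMP and 1 uM cGMP activator in pH 7.2 Tris/MgCl2 buffer, 60 min at room temperature.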

[1] = Lab B, read-out: Rhesus PDE2 Ki (nM) Lab B
[2] = Lab A, read-out: Rhesus PDE2 Ki (nM) Lab A

Structure (SMILES): Cc1nc(-c2cnn(C(C)c3ccc(C(F)(F)F)cc3F)c2)cc(=O)[nH]1 (single isomer, unassigned) [Example 135, (R)- or (S)-6-(1-(1-(2-fluoro-4-(trifluoromethyl)phenyl)ethyl)-1H-pyrazol-4-yl)-2-methylpyrimidin-4(3H)-one]
Ki [1]: 109 nM

Structure (SMILES): Cc1nc(-n2cc([C@]3(c4ccc(C(F)(F)F)cc4)CCCO3)cn2)cc(=O)[nH]1 (single isomer, unassigned) [Example 22]
Ki [1]: 41.9 nM

Structure (SMILES): COc1ccc(Cc2nc(-c3cnn(C(C)c4ccc(C(F)(F)F)cc4F)c3)cc(=O)[nH]2)cc1F (single isomer, unassigned) [Example 147, (S)- or (R)-6-(1-(1-(2-fluoro-4-(trifluoromethyl)phenyl)ethyl)-1H-pyrazol-4-yl)-2-(3-fluoro-4-methoxybenzyl)pyrimidin-4(3H)-one]
Ki [2]: 3.6 nM

Structure (SMILES): Cc1nc(-c2cnn(C(C)c3ccc(C(F)(F)F)cc3Cl)c2)cc(=O)[nH]1 (single isomer, unassigned) [Example 83, (R)- or (S)-6-(1-(1-(2-chloro-4-(trifluoromethyl)phenyl)ethyl)-1H-pyrazol-4-yl)-2-methylpyrimidin-4(3H)-one]
Ki [2]: 6.2 nM

Structure (SMILES): Cc1nc(-c2cnn(C3(c4ccc(C(F)(F)F)cc4F)CCC3)c2)cc(=O)[nH]1 [Example 37, 6-(1-(1-(2-fluoro-4-(trifluoromethyl)phenyl)cyclobutyl)-1H-pyrazol-4-yl)-2-methylpyrimidin-4(3H)-one]
Ki [2]: 13.1 nM

Structure (SMILES): Cc1nc(-c2cnn(C(C)c3ccc(S(F)(F)(F)(F)F)cc3)c2)cc(=O)[nH]1 (single isomer, unassigned) [Example 62, (R)- or (S)-2-methyl-6-(1-(1-(4-(pentafluorosulfanyl)phenyl)ethyl)-1H-pyrazol-4-yl)pyrimidin-4(3H)-one]
Ki [1]: 143 nM

Structure (SMILES): Cc1nc(-n2cc([C@H](C)c3ccc(C(F)(F)F)cc3)cn2)cc(=O)[nH]1 (single isomer, unassigned) [Example 3]
Ki [1]: 93 nM

The remaining lines, values ahead:

Ki [2]: 21.3 nM | Ki [1]: 10.9 nM
Structure (SMILES): COc1cc(Cc2nc(-c3cnn(C(C)c4ccc(C(F)(F)F)cc4F)c3)cc(=O)[nH]2)ccc1F (single isomer, unassigned) [Example 143, (S)- or (R)-2-(4-fluoro-3-methoxybenzyl)-6-(1-(1-(2-fluoro-4-(trifluoromethyl)phenyl)ethyl)-1H-pyrazol-4-yl)pyrimidin-4(3H)-one]

Ki [1]: 15.6 nM
Structure (SMILES): Cc1nc(-n2cc([C@](C)(O)c3ccc(C(F)(F)F)cc3F)cn2)cc(=O)[nH]1 (single isomer, unassigned) [Example 15]

Ki [2]: 7.2 nM | Ki [1]: 3.5 nM
Structure (SMILES): COc1ccc(Cc2nc(-c3cnn(C(C)c4ccc(S(F)(F)(F)(F)F)cc4)c3)cc(=O)[nH]2)cc1OC (single isomer, unassigned) [Example 64, (R)- or (S)-2-(3,4-dimethoxybenzyl)-6-(1-(1-(4-(pentafluorosulfanyl)phenyl)ethyl)-1H-pyrazol-4-yl)pyrimidin-4(3H)-one]

Source: patent US10287269B2, “Pyrazolyl pyrimidinone compounds as PDE2 inhibitors” (Merck Sharp & Dohme Corp., priority 2015, dated 2019)
